In patent publication US8840866B2, “Styrylpyridine derivatives and their use for binding and imaging amyloid plaques” (The Trustees of the University of Pennsylvania, priority 2006, dated 2014):

Assay: Organ distribution in normal ICR mice after iv injection of radiolabeled tracer
Assay type: in vivo
Conditions: [125I]-labeled tracer
Description: The mice (n=3 for each time point) were sacrificed by cervical dislocation at designated time-points post injection. The organs of interest were removed and weighed, and the radioactivity was counted with an automatic gamma counter. The percentage dose per organ was calculated by a comparison of the tissue counts to suitably diluted aliquots of the injected material. The total activity of the blood was calculated under the assumption that it is 7% of the total body weight. The % dose/g of samples was calculated by comparing the sample counts with the count of the diluted initial dose.

**Q.** Which “Biodistribution: Blood” value (2 min) does the source give for CNc1ccc(/C=C/c2cnc(OCCO)c(I)c2)cc1 [[^125I]16b, (E)-[5-Iodo-6-(2-hydroxyethoxy)pyridin-3-yl]-2-(4-methylaminophenyl)-ethylene] here?
**A.** 4.14 ± 0.41 % dose/g

**Q.** And the “Biodistribution: Brain” value (2 min)?
**A.** 8.04 ± 0.82 % dose/g

**Q.** What about the “Biodistribution: Heart” value (2 min) of the same compound?
**A.** 7.16 ± 1.16 % dose/g

**Q.** And the “Biodistribution: Kidney” value (2 min)?
**A.** 11.51 ± 1.48 % dose/g

**Q.** What about the “Biodistribution: Liver” value (2 min) of the same compound?
**A.** 20.84 ± 2.38 % dose/g

**Q.** And the “Biodistribution: Lung” value (2 min)?
**A.** 7.43 ± 1.21 % dose/g

**Q.** And the “Biodistribution: Muscle” value (2 min)?
**A.** 1.15 ± 0.38 % dose/g

**Q.** What about the “Biodistribution: Skin” value (2 min) of the same compound?
**A.** 0.95 ± 0.09 % dose/g

**Q.** What about the “Biodistribution: Spleen” value (2 min) of the same compound?
**A.** 4.08 ± 0.68 % dose/g

**Q.** What about the “Biodistribution: Thyroid” value (2 min) of the same compound?
**A.** 6.31 ± 1.59 % dose/g

**Q.** What about the “Biodistribution: Blood” value (30 min) of the same compound?
**A.** 3.08 ± 0.35 % dose/g

**Q.** What about the “Biodistribution: Brain” value (30 min) of the same compound?
**A.** 0.88 ± 0.30 % dose/g

**Q.** What about the “Biodistribution: Heart” value (30 min) of the same compound?
**A.** 1.50 ± 0.18 % dose/g

**Q.** And the “Biodistribution: Kidney” value (30 min)?
**A.** 3.73 ± 0.75 % dose/g

**Q.** And the “Biodistribution: Liver” value (30 min)?
**A.** 12.57 ± 3.03 % dose/g

**Q.** What about the “Biodistribution: Lung” value (30 min) of the same compound?
**A.** 2.67 ± 0.46 % dose/g

**Q.** What about the “Biodistribution: Muscle” value (30 min) of the same compound?
**A.** 0.91 ± 0.06 % dose/g

**Q.** And the “Biodistribution: Skin” value (30 min)?
**A.** 1.86 ± 0.50 % dose/g

**Q.** What about the “Biodistribution: Spleen” value (30 min) of the same compound?
**A.** 1.34 ± 0.29 % dose/g

**Q.** What about the “Biodistribution: Thyroid” value (30 min) of the same compound?
**A.** 17.23 ± 14.23 % dose/g

**Q.** And the “Biodistribution: Blood” value (1 hr)?
**A.** 1.81 ± 0.56 % dose/g

**Q.** And the “Biodistribution: Brain” value (1 hr)?
**A.** 0.26 ± 0.03 % dose/g

**Q.** And the “Biodistribution: Heart” value (1 hr)?
**A.** 0.88 ± 0.30 % dose/g

**Q.** What about the “Biodistribution: Kidney” value (1 hr) of the same compound?
**A.** 2.16 ± 0.08 % dose/g

**Q.** What about the “Biodistribution: Liver” value (1 hr) of the same compound?
**A.** 5.62 ± 0.68 % dose/g

**Q.** And the “Biodistribution: Lung” value (1 hr)?
**A.** 1.76 ± 0.32 % dose/g

**Q.** What about the “Biodistribution: Muscle” value (1 hr) of the same compound?
**A.** 0.42 ± 0.08 % dose/g

**Q.** And the “Biodistribution: Skin” value (1 hr)?
**A.** 1.29 ± 0.51 % dose/g

**Q.** And the “Biodistribution: Spleen” value (1 hr)?
**A.** 0.87 ± 0.37 % dose/g

**Q.** What about the “Biodistribution: Thyroid” value (1 hr) of the same compound?
**A.** 36.69 ± 37.17 % dose/g

**Q.** What about the “Biodistribution: Blood” value (2 hr) of the same compound?
**A.** 1.96 ± 0.14 % dose/g

**Q.** What about the “Biodistribution: Brain” value (2 hr) of the same compound?
**A.** 0.15 ± 0.02 % dose/g

**Q.** What about the “Biodistribution: Heart” value (2 hr) of the same compound?
**A.** 0.76 ± 0.03 % dose/g

**Q.** What about the “Biodistribution: Kidney” value (2 hr) of the same compound?
**A.** 1.53 ± 0.20 % dose/g

**Q.** And the “Biodistribution: Liver” value (2 hr)?
**A.** 3.41 ± 0.20 % dose/g

**Q.** What about the “Biodistribution: Lung” value (2 hr) of the same compound?
**A.** 1.58 ± 0.10 % dose/g

**Q.** What about the “Biodistribution: Muscle” value (2 hr) of the same compound?
**A.** 0.38 ± 0.02 % dose/g

**Q.** And the “Biodistribution: Skin” value (2 hr)?
**A.** 1.43 ± 0.10 % dose/g

**Q.** And the “Biodistribution: Spleen” value (2 hr)?
**A.** 1.08 ± 0.15 % dose/g

**Q.** What about the “Biodistribution: Thyroid” value (2 hr) of the same compound?
**A.** 99.88 ± 69.45 % dose/g
